According to patent US5387602A, “1.5-diphenyl-3-(N-hydroxycarbamoyloxyalkyl)pyrazoles” (Ortho Pharmaceutical Corporation, priority 1993, dated 1995):

What was measured:
[1] = target: T1, Sheep Seminal Vesicle Cyclooxygenase (Ovis aries, UniProt P05979); experiment: Procedure I: sheep seminal vesicle (SSV) cyclooxygenase inhibition; assay type: biochemical; details: for IC50: SSV CO; for % INHIB. CO (Procedure I): dose 3 MPK unless otherwise stated (so in the source)
T1 construct: purchased Biomol (Plymouth Meeting, Pa.); host or cells: sheep seminal vesicle
T1 sequence (P05979 25-600): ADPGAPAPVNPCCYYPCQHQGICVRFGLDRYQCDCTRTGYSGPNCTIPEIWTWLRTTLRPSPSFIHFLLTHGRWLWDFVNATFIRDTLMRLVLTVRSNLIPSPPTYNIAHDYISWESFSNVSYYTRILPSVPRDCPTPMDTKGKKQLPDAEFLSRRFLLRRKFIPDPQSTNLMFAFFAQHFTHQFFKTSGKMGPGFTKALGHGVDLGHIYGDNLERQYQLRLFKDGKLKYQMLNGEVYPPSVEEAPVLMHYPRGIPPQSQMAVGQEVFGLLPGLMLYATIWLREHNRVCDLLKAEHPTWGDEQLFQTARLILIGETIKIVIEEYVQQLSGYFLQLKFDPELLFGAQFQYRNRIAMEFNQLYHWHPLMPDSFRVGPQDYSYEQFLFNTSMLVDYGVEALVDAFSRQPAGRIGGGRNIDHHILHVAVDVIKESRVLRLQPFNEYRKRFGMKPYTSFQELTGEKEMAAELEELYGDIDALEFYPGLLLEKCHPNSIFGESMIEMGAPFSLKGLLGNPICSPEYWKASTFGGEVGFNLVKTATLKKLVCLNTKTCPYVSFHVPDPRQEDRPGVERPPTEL
Description: Sheep Seminal Vesicle Cyclooxygenase Sheep seminal vesicle (SSV) cyclooxygenase (95% pure, prostaglandin endoperoxide synthase, EC 1.14.99.1 specific activity 24 units/mg protein) obtained as a lyophilized powder from Biomol (Plymouth Meeting, Pa.) was reconstituted at a concentration of 59 mg/mL in Hanks' Balanced Salt Solution (HBSS). The enzyme was divided into 200 μL aliquots, snap frozen with liquid N2, and stored at -70° C. until immediately prior to use. Measurements of CO activity were carried out in polypropylene tubes containing 495 μL of HBSS to which was added 5 μL Of inhibitor or dimethylsulfoxide (DMSO; vehicle control) and 6 μL of SSV CO solution. The tubes were mixed on a vortex shaker, preincubated for 5 min at 37° C. prior to the initiation of the reaction. The reaction was started by the addition of [^14 C]-arachidonic acid (1-^14 C-AA, Amersham, Arlington Heights, Ill.) in 10 μL of methanol. Tubes were again vortexed and incubated in a water bath for 20 minutes after which the tubes were removed and the reaction stopped by acidification with the addition of 1 mL 2M formic acid. Lipophilic products were extracted with 3 mL chloroform and concentrated to dryness under N2. Each pellet was reconstituted with 40 μL of chloroform and spotted on a Whatman Silicon thin-layer chromatography plate and developed in a chromatography tank containing A-9 solvent (11:5:2:1 V:V:V:V, ethyl acetate:trimethyl-pentane:acetic acid:double distilled-H2 O). Radioactive cyclooxygenase products (prostaglandin D2, prostaglandin E2, etc.) were measured using a Bioscan System 200 Imaging Scanner. Inhibition of enzyme activity was calculated by comparing the areas under the curve produced in the presence or absence of test compound. In the following tables, the superscripts indicate the number of experiments and, unless otherwise stated, the dose at which % inhibition is reported is 3 MPK.

[2] = target: T2, RBL-1 Cell Cyclooxygenase (Rattus norvegicus, UniProt Q63921); experiment: Procedure II: cyclooxygenase inhibition in disrupted RBL-1 cells (supernatant as enzyme source); assay type: biochemical; details: for IC50: read-out: IC50 CO (Procedure II)
T2 construct: the supernatant was saved as the source of enzymes; endogenous in cells; host or cells: RBL-1 (rat basophilic leukemia cells), 10,000×g supernatant of homogenate
T2 sequence (Q63921 27-602): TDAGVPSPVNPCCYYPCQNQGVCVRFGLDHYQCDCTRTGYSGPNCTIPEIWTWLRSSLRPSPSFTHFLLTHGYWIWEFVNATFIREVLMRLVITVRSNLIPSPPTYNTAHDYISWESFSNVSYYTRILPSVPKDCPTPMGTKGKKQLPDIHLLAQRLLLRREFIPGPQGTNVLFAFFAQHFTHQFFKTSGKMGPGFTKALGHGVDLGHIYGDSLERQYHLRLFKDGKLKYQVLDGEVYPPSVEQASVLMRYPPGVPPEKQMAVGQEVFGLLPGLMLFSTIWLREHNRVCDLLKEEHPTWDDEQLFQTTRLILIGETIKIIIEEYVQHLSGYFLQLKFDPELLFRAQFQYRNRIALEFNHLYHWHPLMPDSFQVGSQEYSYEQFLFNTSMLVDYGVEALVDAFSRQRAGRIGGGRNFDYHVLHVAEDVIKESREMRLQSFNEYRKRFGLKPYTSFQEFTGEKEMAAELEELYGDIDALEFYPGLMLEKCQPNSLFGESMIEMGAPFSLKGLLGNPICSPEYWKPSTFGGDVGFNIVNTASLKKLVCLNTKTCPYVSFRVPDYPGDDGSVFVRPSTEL
Description: RBL-1 Cell 5-Lipoxygenase and Cyclooxygenase
Rat basophilic leukemia cells (RBL-1; 5×10^7 viable cells/mL) were disrupted by homogenization on ice (four 20 sec bursts) with a Brinkman polytron. Complete cell breakage was verified microscopically. The homogenate was then centrifuged at 10,000×g for 48 minutes at 4° C. The pellet was discarded and the supernatant was saved as the source of enzymes. The supernatant was pre-incubated for five minutes at 37° C. in the presence of 2 mM of CaCl2 and compound or vehicle (1% DMSO). The conversion of AA into 5-LO products was initiated by adding 10 μL (50 μCi) of 1-^14 C-AA to each tube and incubated at 37° C. for 20 minutes. The reaction was stopped by adjusting the pH of each sample to 3 to 3.5 with 2M formic acid. Samples were extracted with three volumes of chloroform to isolate the products of 5-LO formed during the reaction. Fractions were dried under nitrogen, then resuspended in 40 μL of chloroform and spotted onto silica gel HL plates. The plates were developed in A-9 solvent. The dried plates were analyzed using a Bioscan Imaging TLC scanner to determine the percentage of radiolabelled AA converted to 5-HETE in each sample.
In the following tables, the superscripts indicate the number of experiments and, unless otherwise stated, the dose at which % inhibition is reported is 3 MPK.

| SMILES | IC50 [1] [nM] | % INHIB. CO (Procedure I) [1] [%] | % INHIBITION CO (Procedure II) [2] [%] | IC50 [2] [nM] |
| --- | --- | --- | --- | --- |
| COc1ccc(-n2nc(COC(=O)NO)c(Br)c2-c2ccc(C)cc2)cc1 [1-M] | 2310 | 75 | 85 | 1460 |
| COc1ccc(-n2nc(COC(=O)N(O)C(C)C)cc2-c2ccc(C)cc2)cc1 [1-L] | 420 | 100 | 64 | 1700 |
| COc1ccc(-n2nc(CCCOC(=O)N(O)C(C)C)c(Cl)c2-c2ccc(Cl)cc2)cc1 [3-E] | 5800 | 26 | 52 | 17000 |
| COc1ccc(-n2nc(COC(=O)N(O)C(C)C)c(Cl)c2-c2ccc(Cl)cc2)cc1 [1-I] | 5300 | 18 | 3 | 1630 |
| COc1ccc(-n2nc(CCOC(=O)N(C)O)c(Br)c2-c2ccc(Cl)cc2)cc1 [2-E] | 1970 | 37 | 5.5 | 2700 |
| COc1ccc(-n2nc(COC(=O)N(C)O)cc2-c2ccc(Cl)cc2)cc1 [1-B] | 730 | 100 | 52 | 1400 |
| COc1ccc(-n2nc(CCCOC(=O)NO)cc2-c2ccc(Cl)cc2)cc1 [3-A] | 4000 | 40 | 67 | 3000 |
| COc1ccc(-n2nc(CCOC(=O)N(C)O)c(Cl)c2-c2ccc(C)cc2)cc1 [2-I] | 3500 | 80 | 52 | 2010 |
| COc1ccc(-n2nc(COC(=O)N(O)C(C)C)c(Br)c2-c2ccc(C)cc2)cc1 [1-O] | 2660 | 59 | 82 | 3120 |
| COc1ccc(-n2nc(COC(=O)N(C)O)c(Br)c2-c2ccc(C)cc2)cc1 [1-N] | 890 | 100 | 100 | 1140 |
| COc1ccc(-n2nc(CCCOC(=O)N(O)C(C)C)cc2-c2ccc(Cl)cc2)cc1 [3-C] | 1400 | 53 | 72 | 1780 |
| COc1ccc(-n2nc(COC(=O)NO)c(Cl)c2-c2ccc(Cl)cc2)cc1 [1-G] | – | 28 | 18 | 950 |
| COc1ccc(-n2nc(CCOC(=O)N(O)C(C)C)cc2-c2ccc(Cl)cc2)cc1 [2-B] | 960 | 100 | 55 | 500 |
| COc1ccc(-n2nc(CCCOC(=O)N(O)C(C)C)c(Br)c2-c2ccc(Cl)cc2)cc1 [3-G] | 14100 | 0 | 0 | 3170 |
| COc1ccc(-n2nc(COC(=O)N(O)C(C)C)c(Cl)c2-c2ccc(C)cc2)cc1 [1-R] | – | 11 | 8 | 3800 |
| COc1ccc(-n2nc(CCOC(=O)N(C)O)c(Cl)c2-c2ccc(Cl)cc2)cc1 [2-C] | 1850 | 100 | 41 | 2720 |
| COc1ccc(-n2nc(CCCOC(=O)N(C)O)c(Br)c2-c2ccc(Cl)cc2)cc1 [3-F] | 2290 | 78 | 100 | 6110 |
| COc1ccc(-n2nc(CCOC(=O)N(C)O)cc2-c2ccc(Cl)cc2)cc1 [2-A] | 2010 | 100 | 44 | 1950 |
| COc1ccc(-n2nc(CCCOC(=O)N(C)O)cc2-c2ccc(Cl)cc2)cc1 [3-B] | – | 74 | 65 | 6340 |

Stronger by IC50 [2], values ahead:

| IC50 [1] [nM] | % INHIB. CO (Procedure I) [1] [%] | % INHIBITION CO (Procedure II) [2] [%] | IC50 [2] [nM] | SMILES |
| --- | --- | --- | --- | --- |
| 1150 | 100 | 41 | 220 | COc1ccc(-n2nc(COC(=O)N(C)O)c(Cl)c2-c2ccc(Cl)cc2)cc1 [1-H] |
| 730 | 73 | 87 | 180 | COc1ccc(-n2nc(COC(=O)NO)cc2-c2ccc(C)cc2)cc1 [1-J] |
| 740 | 100 | 43 | 170 | COc1ccc(-n2nc(COC(=O)N(C)O)c(Br)c2-c2ccc(Cl)cc2)cc1 [1-E] |
| 410 | 100 | 100 | 400 | COc1ccc(-n2nc(CCOC(=O)N(C)O)cc2-c2ccc(C)cc2)cc1 [2-G] |
| 4500 | 88 | 42 | 480 | COc1ccc(-n2nc(CCOC(=O)N(O)C(C)C)c(Cl)c2-c2ccc(C)cc2)cc1 [2-J] |
| – | 21 | 35 | 410 | COc1ccc(-n2nc(CCOC(=O)NO)c(Br)c2-c2ccc(C)cc2)cc1 [2-K] |
| 220 | 94 | 100 | 40 | COc1ccc(-n2nc(CCOC(=O)N(O)C(C)C)cc2-c2ccc(C)cc2)cc1 [2-H] |
| 290 | 63 | 1.5 | 250 | COc1ccc(-n2nc(CCOC(=O)N(O)C(C)C)c(Cl)c2-c2ccc(Cl)cc2)cc1 [2-D] |
| 2250 | 43 | 34 | 180 | COc1ccc(-n2nc(COC(=O)NO)cc2-c2ccc(Cl)cc2)cc1 [1-A] |
| 510 | 100 | 100 | 150 | COc1ccc(-n2nc(COC(=O)N(C)O)cc2-c2ccc(C)cc2)cc1 [1-K] |
| 3100 | 43 | 36 | 300 | COc1ccc(-n2nc(COC(=O)NO)c(Br)c2-c2ccc(Cl)cc2)cc1 [1-D] |
